Where two headings read alike, the source gives them in different places.
What was measured:
[1] = test system: bloodstream trypomastigotes NINOA and INC-5 of T. cruzi; parameters: method as in PMID 24691716; details: 5 µg/mL (M2 = 14.73 µM, M8 = 17.98 µM, M6 = 14.91 µM); NINOA and INC-5 bloodstream trypomastigotes; cited from earlier work
recombinant T. cruzi TR = molecular target: T1, recombinant T. cruzi TR (Trypanosoma cruzi, UniProt P28593); test: TR enzyme inhibition (NADPH consumption at 340 nm); assay type: biochemical; details: for inhibition at 20 µM: inhibitor 20 µM; for inhibition at 40 µM: inhibitor 40 µM; for inhibition at 60 µM: inhibitor 60 µM; for inhibition at 80 µM: inhibitor 80 µM, T-085 precipitates in the assay at 80 µM; for inhibition at 100 µM: inhibitor 100 µM; for inhibitory activity on TR: even when tested at 100 μM, 100 μM or 40 μM TS2
T1 construct: made in house
T1 sequence (P28593 whole entry): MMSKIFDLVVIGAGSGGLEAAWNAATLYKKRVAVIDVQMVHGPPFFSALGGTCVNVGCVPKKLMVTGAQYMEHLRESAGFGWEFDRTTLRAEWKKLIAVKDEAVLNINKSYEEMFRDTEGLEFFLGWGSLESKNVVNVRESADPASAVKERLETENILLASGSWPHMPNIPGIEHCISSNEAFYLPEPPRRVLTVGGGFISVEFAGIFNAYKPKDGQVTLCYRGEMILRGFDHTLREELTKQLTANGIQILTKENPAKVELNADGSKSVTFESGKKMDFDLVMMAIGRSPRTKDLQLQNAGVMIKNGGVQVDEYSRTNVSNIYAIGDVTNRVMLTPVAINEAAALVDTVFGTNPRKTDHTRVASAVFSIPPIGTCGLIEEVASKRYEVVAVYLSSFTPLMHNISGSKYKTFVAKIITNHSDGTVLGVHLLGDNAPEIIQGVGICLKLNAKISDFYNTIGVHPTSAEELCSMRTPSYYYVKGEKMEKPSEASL
Protocol: Trypanothione disulfide (TS2) and recombinant T. cruzi TR were prepared following published procedures. Recombinant human glutathione reductase (GR) was kindly provided by Dr. Heiner Schirmer, Heidelberg Germany. Stock solutions (5 mM) of the inhibitors were prepared in DMSO. The kinetic analyses were conducted using a Jasco V650 spectrophotometer. All enzymatic tests were performed in polystyrene optical cuvettes (10 × 4 × 45 mm). TR activity was measured at 25 °C in a total volume of 1 mL TR assay buffer (40 mM HEPES, 1 mM EDTA, pH 7.5 [47]) containing 100 μM NADPH and 5–10 mU enzyme in the absence and presence of the inhibitor. Each assay contained a total of 5% DMSO. The reaction was started by adding TS2 and NADPH consumption was followed at 340 nm.
Five compound concentrations were used ranging from 100–5 μM. All measurements were performed twice in three independent series. Enzyme activity was plotted versus increasing inhibitor concentrations. IC50 values were calculated using the four-parameter equation model 205 and the option “unlock” from the XLfit add-in (IDBS, Guildford, United Kingdom) for Excel (Microsoft Corporation, Redmond, WA, USA).
The type of inhibition and the inhibitor constants were derived from Lineweaver-Burk plot. The activity of TR was measured in the absence and presence of two to three constant concentrations of inhibitor varying the concentration of TS2 (20, 40, 60, 100 and 200 µM). The inhibitory constant Ki was calculated from the direct plot using nonlinear least-squares data fitting in Excel spreadsheet.

[2] = test system: T. cruzi INC-5 epimastigotes; test: Viability (MTT) assay on T. cruzi epimastigotes; assay type: cell-based, Trypanosoma cruzi; details: Trypanosoma cruzi, 24 h, mean and SD of triplicate
Protocol: In this study, two strains of T. cruzi isolated in Mexico were used. […] Epimastigotes were cultured in vitro in liver infusion-tryptose (LIT) medium supplemented with 10% heat inactivated fetal bovine serum (FBS) (Gibco) and 100 U/mL penicillin-streptomycin (In vitro S.A.), and incubated at 27 °C. CD1 mice, aged 6–8 weeks, were infected with T. cruzi to obtain bloodstream trypomastigote samples.
Viability assays of T. cruzi epimastigotes using 3-(4,5-dimethylthiazol-2-yl)-2,5-diphenyltetrazolium bromide (MTT) were performed. Briefly, the parasites were harvested during the exponential growth phase for a period of five days. In a 96-well microplate 1x10^6 epimastigotes were deposited in brain-heart infusion (BHI) medium supplemented with 10% FBS and 100 U/mL antibiotic-antifungal mixture (Gibco). […] Each well reached a final volume of 100 µL. Each condition was assessed in triplicate. The microplate was incubated for 24 h at 27 °C in darkness. Afterwards, 10 μL of a 5 mg/mL MTT solution was added and the plate was incubated for 20 h at 27 °C. Then 200 μL of 10% dodecyl sulfate (SDS)/0.1% HCl solution was added to dissolve formazan salts; the plate was incubated an additional 4 h. Finally, the plate was read at 570 nm in a spectrophotometer (Multiskan EX Thermo Electron, Taipei, Taiwan). The amount of viable cells was proportional to the amount of formazan produced. […] Later the results were converted to micromolar units. […] As a […] control, parasites were incubated only in culture medium with a 1% DMSO concentration, corresponding to the highest sample dilution of DMSO [34, 35, 36].

[3] = Cytotoxicity assay (Alamar Blue) on macrophages; assay type: cell-based, murine; details: mouse, J774A.1 macrophages, mean and SD of triplicate
Protocol: The murine macrophage cell line J774.A1 was maintained in culture flasks with RPMI 1640 medium supplemented with 10% FBS, 1% MEM-NEAA medium (Gibco) and 100 U/mL antibiotic-antifungal mixture (Gibco). Cells were incubated at 37 °C with 5% CO2 and humidity. Trypsinized J774.A1 macrophages were washed and viability was assessed by the trypan blue dye (Sigma-Aldrich, Toluca, Edo de Mexico, Mexico) exclusion assay. In a 96-well microplate, 50,000 macrophages were seeded per well and a dose-response assay was performed. Compounds were evaluated using six-fold serial dilutions ranging from 100 µg/mL to 0.3 µg/mL of final concentration. Each compound was tested in triplicate. After 20 h incubation, Alamar Blue was added (10% v/v) and cells were incubated for an additional 4 h period. Results were obtained as previously described and CC50 was calculated. As a negative control of cytotoxicity, cells were incubated only in the presence of 0.1% DMSO [39, 40].

[4] = test system: T. cruzi bloodstream trypomastigotes INC-5 strain; test: microbe, parasite or virus in culture; assay type: cell-based; details: Trypanosoma cruzi; 50 μg/mL, 24 h at 4 °C, infected mouse blood; read-out: % Lysis at 50 μg/mL INC-5 Strain
Protocol: (§1) In this study, two strains of T. cruzi isolated in Mexico were used. T. cruzi NINOA strain (MHOM/MX/1994/NINOA) was obtained from a patient with acute Chagas disease and T. cruzi INC-5 (MHOM/MX/1994/INC5) was isolated from a patient in the chronic phase of the disease. Epimastigotes were cultured in vitro in liver infusion-tryptose (LIT) medium supplemented with 10% heat inactivated fetal bovine serum (FBS) (Gibco) and 100 U/mL penicillin-streptomycin (In vitro S.A.), and incubated at 27 °C. CD1 mice, aged 6–8 weeks, were infected with T. cruzi to obtain bloodstream trypomastigote samples. Animal experiments were performed according to Norma Oficial Mexicana (NOM-062-Z00-1999) published on 22 August, 2009.
(§2) CD1 female mice 6–8 weeks old were infected with T. cruzi bloodstream trypomastigotes of the INC-5 and NINOA strains. The course of infection continued for 4–6 weeks. At the peak of parasitemia blood was obtained by cardiac puncture using sodium heparin as an anticoagulant. The blood was adjusted to 1 × 10^6 bloodstream trypomastigotes/mL.
(§3) In each well of the 96-well plate, 195 μL of infected blood and 5 μL of quinoxaline 1,4-di-N-oxide derivatives or reference drug dilutions were seeded, with each well reaching a final volume of 200 µL. Each assay was performed in triplicate. Initially, all compounds were tested at 50 μg/mL. […] As a negative control of lysis, wells with untreated blood trypomastigotes were used, and as a positive control, wells with the reference drugs were used. The microplates were incubated at 4 °C for 24 h. Bloodstream trypomastigotes were quantified by the method of Brener-Pizzi, 5 μL of blood were placed on a slide and covered with a coverslip 13 × 13 mm. The mobile protozoa were counted in 15 fields at 40× magnification using an optical microscope. The percentage lysis was determined by comparing the remaining trypomastigotes against the negative control. LC50 was determined with the Probit statistical tool. The results were later converted to micromolar units.

[5] = test system: T. cruzi bloodstream trypomastigotes NINOA strain; test: microbe, parasite or virus in culture; assay type: cell-based; details: Trypanosoma cruzi; 50 μg/mL, 24 h at 4 °C, infected mouse blood; read-out: % Lysis at 50 μg/mL NINOA Strain
Protocol: as §1, §2, §3

TR = details: known TR inhibitor, quoted for comparison; no reference given; cited from earlier work
[6] = 40 µM TS2, read-out: % Inhibition of TR at 40 µM [TS2]
[7] = 100 µM TS2, read-out: % Inhibition of TR at 100 µM [TS2]

Compound	% lysis at 5 µg/mL [1]	inhibition at 40 µM (recombinant T. cruzi TR; [6])	inhibition at 40 µM (recombinant T. cruzi TR; [7])	inhibition at 100 µM (recombinant T. cruzi TR; [6])	inhibition at 100 µM (recombinant T. cruzi TR; [7])	IC50 [2]	CC50 at 24 h [3]	killing at 50 µg/mL [4]	killing at 50 µg/mL [5]	also measured
COC(=O)c1ccc2c(c1)[n+]([O-])c(C(=O)c1ccccc1)c(C)[n+]2[O-] [Compound T-003]	about 50%	9%	10%	23.8%	19.3%	–	–	–	–	inhibition at 20 µM (recombinant T. cruzi TR; [6]): 6.6%; inhibition at 20 µM (recombinant T. cruzi TR; [7]): 6%; inhibition at 60 µM (recombinant T. cruzi TR; [6]): 14.8%; inhibition at 60 µM (recombinant T. cruzi TR; [7]): 12%; inhibition at 80 µM (recombinant T. cruzi TR; [6]): 20.5%; inhibition at 80 µM (recombinant T. cruzi TR; [7]): 18%
COC(=O)c1ccc2c(c1)[n+]([O-])c(C(=O)OC(C)(C)C)c(C)[n+]2[O-] [Compound T-021]	about 50%	0%	0%	7.5%	0%	–	–	–	–	inhibitory activity on TR (recombinant T. cruzi TR): no or negligible inhibitory activity
COC(=O)c1ccc2c(c1)[n+]([O-])c(C(N)=O)c(C)[n+]2[O-] [Compound T-044]	about 50%	0%	0%	0%	0%	–	–	–	–	inhibitory activity on TR (recombinant T. cruzi TR): no or negligible inhibitory activity
CCCOC(=O)c1ccc2c(c1)[n+]([O-])c(C(=O)Nc1ccccc1)c(C)[n+]2[O-] [Compound T-125, n-Propyl 2-phenylamide-3-methylquinoxaline-7-carboxylate 1,4-di-N-oxide]	–	–	–	–	–	> 130 µM	> 261 µM	0%	35.6 ± 3.6%	–
CCCOC(=O)c1ccc2c(c1)[n+]([O-])c(C(C)=O)c(C)[n+]2[O-] [Compound T-126, n-Propyl 2-acetyl-3-methylquinoxaline-7-carboxylate 1,4-di-N-oxide]	–	–	–	–	–	> 163 µM	> 327 µM	0%	17.7 ± 3.1%	–
CCCOC(=O)c1ccc2c(c1)[n+]([O-])c(C(N)=O)c(C)[n+]2[O-] [Compound T-130, n-Propyl 2-amide-3-methylquinoxaline-7-carboxylate 1,4-di-N-oxide]	–	–	–	–	–	238 ± 11.5 µM	> 326 µM	0.69 ± 1.2%	4.65 ± 3.4%	–
CC1CS(=O)(=O)CCN1/N=C/c1ccc([N+](=O)[O-])o1 (stereo not shown) [Nfx, nifurtimox, reference compound]	–	–	–	–	–	8.74 ± 3.8 µM	201 ± 12.5 µM	62.6 ± 3.9%	67.3 ± 5.4%	–
CCN(CC)CCCC(C)Nc1c2ccc(Cl)cc2nc2ccc(OC)cc12 (stereo not shown) [mepacrine]	–	–	–	–	–	–	–	–	–	Ki (TR): 19 µM

From paper PMC6155662, “Trypanocidal Activity of Quinoxaline 1,4 Di-N-oxide Derivatives as Trypanothione Reductase Inhibitors” (Molecules : A Journal of Synthetic Chemistry and Natural …, 2017)
